Measurements taken from BigSolDB 2.1.

Cc1nc(CCl)nc2ccccc12
solubility (mole fraction)
Settings	in THF	in acetone	in acetonitrile	in cyclohexane	in ethanol	in ethyl acetate	in isopropanol	in n-butanol	in n-hexane	in n-propanol
281.15 K	0.229	0.107	0.0488	0.0193	0.061	0.105	0.0429	0.05	0.00825	0.134
286.15 K	0.264	0.142	0.0692	0.0266	0.0771	0.136	0.0569	0.063	0.0115	0.145
291.15 K	0.297	0.188	0.096	0.0361	0.0969	0.173	0.0748	0.081	0.0146	0.158
296.15 K	0.339	0.244	0.13	0.0484	0.123	0.217	0.0964	0.101	0.019	0.172
301.15 K	0.374	0.297	0.174	0.0639	0.152	0.266	0.123	0.125	0.0232	0.186
306.15 K	0.411	0.373	0.22	0.0832	0.183	0.32	0.156	0.153	0.0289	0.201
311.15 K	0.452	0.449	0.276	0.107	0.219	0.378	0.196	0.186	0.0372	0.217
316.15 K	0.492	0.531	0.34	0.135	0.257	0.44	0.245	0.225	0.0476	0.234
321.15 K	0.528	0.603	0.411	0.168	0.297	0.503	0.304	0.27	0.0598	0.253
326.15 K	0.563	0.676	0.488	0.207	0.337	0.567	0.394	0.319	0.0751	0.273
331.15 K	0.604	0.74	0.559	0.249	0.389	0.63	0.467	0.361	0.093	0.294
